Literature values as cited in PMC10017685 (Nature Communications, 2023).

System: human erythrocytes
Set-up: method as in DBAASP
Conditions: toxicity class label 1 or 0, meaning of the labels not given; DBAASP HC50 data, human erythrocytes; ref DBAASP; cited from earlier work

AAKKGCWTVSIPPKPCF [DBAASP_12530] and AFALIAGALYRIFHRR [DBAASP_16955] are the same in “Class (dedicated toxicity dataset used for toxicity classifier evaluation)” value (from here on “Class”): 0 for the first, 0 for the second.

Compared with AIGSILGALAKGLPTLISWIKNR [DBAASP_2156], AILTTLANWARKFL [DBAASP_3561] is lower in “Class” value: 1 for the first, 0 for the second.

AKRHHGYKRKFH [DBAASP_732] and ALFKTMLKKLGTMAL [DBAASP_10098] are the same in “Class” value: 0 for the first, 0 for the second.

ALHKTMLKKLGTMAL [DBAASP_10090] and ALLKTMLKKLGTMAL [DBAASP_10104] are the same in “Class” value: 0 for the first, 0 for the second.

Going from ALWKSLLKNVGKA [DBAASP_11806] to ALWKTLLKKVLKAAA [DBAASP_7356], the “Class” value rises from 0 to 1.

ALWKTMLKKLGT [DBAASP_10094] and ALWKTMLKKLGTM [DBAASP_10093] are the same in “Class” value: 0 for the first, 0 for the second.

ALWKTMLKKLGTMA [DBAASP_10092] and ALWKTMLKKLGTMAL [DBAASP_10095] are the same in “Class” value: 0 for the first, 0 for the second.

ALWKTMLKKLGTMALHAGK [DBAASP_10088] and ALYKTMLKKLGTMAL [DBAASP_10103] are the same in “Class” value: 0 for the first, 0 for the second.

AVDLAKIANKVLSSLF [DBAASP_2207] and CAKAKAKAGSGAKAKAKAC [DBAASP_351] are the same in “Class” value: 0 for the first, 0 for the second.

CFKFKFKFGSGFKFKFKFC [DBAASP_352] and CVKVKVKVGSGVKVKVKVC [DBAASP_347] are the same in “Class” value: 0 for the first, 0 for the second.

CVKVQVKVGSGVKVQVKVC [DBAASP_350] and CVKVRVKVGSGVKVRVKVC [DBAASP_349] are the same in “Class” value: 0 for the first, 0 for the second.

CVKVSVKVGSGVKVSVKVC [DBAASP_348] and CWKWKWKWGSGWKWKWKWC [DBAASP_353] are the same in “Class” value: 0 for the first, 0 for the second.

Going from DIFGAIWPLALGALKNLIK [DBAASP_9407] to DSHAKRHHGYKRKFHEKHHSHRGY [DBAASP_15], the “Class” value falls from 1 to 0.

First: FFFFKKKKK [DBAASP_15834]
Second: FFFLSRIF [DBAASP_3232]
The “Class” value of the first is higher: 1 for the first, 0 for the second.

First: FFGKVLKLIRKIF [DBAASP_2255]
Second: FFGSVLKLIPKIL [DBAASP_5799]
The “Class” value of the first is higher: 1 for the first, 0 for the second.

First: FFGWLIKGAIHAGKAIHGLIHRRRH [DBAASP_3173]
Second: FFHHAFRGIVHVGKTIHRLVTG [DBAASP_9003]
The “Class” value of the first is higher: 1 for the first, 0 for the second.

Going from FFHHFARGIVHVGKTIHRLVTG [DBAASP_9009] to FFHHIFRGIVHIGKTIHRLVTG [DBAASP_9010], the “Class” value rises from 0 to 1.

FFHHIFRGIVHVGKKIHRLVKG [DBAASP_9984] and FFHHIFRGIVHVGKKIHRLVTG [DBAASP_9986] are the same in “Class” value: 0 for the first, 0 for the second.

First: FFHHIFRGIVHVGKTIHRLVTG [DBAASP_4867]
Second: FFHHIFRGIVHVGKTVHRLVTG [DBAASP_9008]
The “Class” value of the first is higher: 1 for the first, 0 for the second.

FFHHIFRGVVHVGKTIHRLVTG [DBAASP_9007] and FFHHVFRGIVHVGKTIHRLVTG [DBAASP_9006] are the same in “Class” value: 0 for the first, 0 for the second.
